Active and inactive are the calls of the source. No cut-off for these calls is given here.
Assays:
[1] = test system: NIH3T3; assay: Anticancer activity against mouse NIH3T3 cells assessed as growth inhibition incubated for 48 hrs by MTT assay; assay type: cell-based; conditions: NIH3T3, 48 h
[2] = test system: HeLa; assay: Anticancer activity against human HeLa cells assessed as growth inhibition incubated for 48 hrs by MTT assay; assay type: functional, cell-based
[3] = test system: SK-MEL-28; assay: Anticancer activity against human SK-MEL-28 cells assessed as growth inhibition incubated for 48 hrs by MTT assay; assay type: functional, cell-based; conditions: SK-MEL-28, 48 h
[4] = test system: A549; assay: Anticancer activity against human A549 cells assessed as growth inhibition incubated for 48 hrs by MTT assay; assay type: functional, cell-based; conditions: A549, 48 h
[5] = test system: U-87 MG; assay: Anticancer activity against human U-87 MG cells assessed as growth inhibition incubated for 48 hrs by MTT assay; assay type: functional, cell-based, U-87MG ATCC
[6] = test system: MDA-MB-231; assay: Anticancer activity against human MDA-MB-231 cells assessed as growth inhibition incubated for 48 hrs by MTT assay; assay type: functional, cell-based; conditions: MDA-MB-231, 48 h
[7] = test system: HepG2; assay: Anticancer activity against human HepG2 cells assessed as growth inhibition incubated for 48 hrs by MTT assay; assay type: functional, cell-based; conditions: HepG2, 48 h
[8] = test system: DU-145; assay: Anticancer activity against human DU-145 cells assessed as growth inhibition incubated for 48 hrs by MTT assay; assay type: functional, cell-based; conditions: DU-145, 48 h
[9] = test system: HEK293; assay: Anticancer activity against human HEK293 cells assessed as growth inhibition incubated for 48 hrs by MTT assay; assay type: cell-based; conditions: HEK293, 48 h
[10] = test system: HepG2; assay: Induction of apoptosis in human HepG2 cells assessed as late apoptotic cells at 5 uM incubated for 48 hrs by annexin V-FITC/propidium iodide (AV/PI) dual staining assay (reference value: 4.07%); assay type: functional
[11] = test system: HepG2; assay: Cell cycle arrest in human HepG2 cells assessed as accumulation at G2/M phase at 10 uM (reference value: 3.72%); assay type: functional
[12] = test system: HepG2; assay: Induction of apoptosis in human HepG2 cells assessed as necrotic cells at 10 uM incubated for 48 hrs by annexin V-FITC/propidium iodide (AV/PI) dual staining assay (reference value: 1.06%); assay type: functional
[13] = test system: HepG2; assay: Induction of apoptosis in human HepG2 cells assessed as nuclear condensation at 5 to 10 uM incubated for 48 hrs by Hoechst staining based assay relative to control; assay type: functional, cell-based; conditions: dose 5-10 µM
[14] = test system: HepG2; assay: Induction of apoptosis in human HepG2 cells assessed as live cells at 5 uM incubated for 48 hrs by annexin V-FITC/propidium iodide (AV/PI) dual staining assay (reference value: 91.01%); assay type: functional
[15] = test system: HepG2; assay: Induction of apoptosis in human HepG2 cells assessed as early apoptotic cells at 5 uM incubated for 48 hrs by annexin V-FITC/propidium iodide (AV/PI) dual staining assay (reference value: 3.87%); assay type: functional
[16] = test system: HepG2; assay: Cell cycle arrest in human HepG2 cells assessed as accumulation at S phase at 10 uM (reference value: 4.66%); assay type: functional
[17] = test system: HepG2; assay: Induction of apoptosis in human HepG2 cells assessed as late apoptotic cells at 10 uM incubated for 48 hrs by annexin V-FITC/propidium iodide (AV/PI) dual staining assay (reference value: 4.07%); assay type: functional
[18] = test system: HepG2; assay: Induction of apoptosis in human HepG2 cells assessed as necrotic cells at 5 uM incubated for 48 hrs by annexin V-FITC/propidium iodide (AV/PI) dual staining assay (reference value: 1.06%); assay type: functional
[19] = test system: HepG2; assay: Induction of apoptosis in human HepG2 cells assessed as early apoptotic cells at 10 uM incubated for 48 hrs by annexin V-FITC/propidium iodide (AV/PI) dual staining assay (reference value: 3.87%); assay type: functional
[20] = test system: HepG2; assay: Induction of apoptosis in human HepG2 cells assessed as live cells at 10 uM incubated for 48 hrs by annexin V-FITC/propidium iodide (AV/PI) dual staining assay (reference value: 91.01%); assay type: functional
[21] = test system: HepG2; assay: Cell cycle arrest in human HepG2 cells assessed as accumulation at G2/M phase at 5 uM (reference value: 3.72%); assay type: functional
[22] = test system: HepG2; assay: Cell cycle arrest in human HepG2 cells assessed as accumulation at SubG1 phase at 10 uM (reference value: 7.13%); assay type: functional
[23] = test system: HepG2; assay: Cell cycle arrest in human HepG2 cells assessed as accumulation at S phase at 5 uM (reference value: 4.66%); assay type: functional
[24] = test system: HepG2; assay: Cell cycle arrest in human HepG2 cells assessed as accumulation at G0/G1 phase at 5 uM (reference value: 92.33%); assay type: functional
[25] = test system: HepG2; assay: Cell cycle arrest in human HepG2 cells assessed as accumulation at SubG1 phase at 5 uM (reference value: 7.13%); assay type: functional
[26] = test system: HepG2; assay: Cell cycle arrest in human HepG2 cells assessed as accumulation at G0/G1 phase at 10 uM (reference value: 92.33%); assay type: functional
[27] = test system: HepG2; assay: Induction of apoptosis in human HepG2 cells assessed as decrease in mitochondrial membrane potential at 5 to 10 uM incubated for 48 hrs by JC-1 staining based assay relative to control; assay type: functional, cell-based; conditions: dose 5-10 µM

SMILES	IC50 [2] [µM]	IC50 [3] [µM]	IC50 [4] [µM]	IC50 [5] [µM]	IC50 [6] [µM]	IC50 [7] [µM]	IC50 [8] [µM]	IC50 [1] [µM]	IC50 [9] [µM]	other results
C(=C\c1nc2ccccn2c1Sc1ccccc1)/c1ccccc1	35.5	65.4	16.3	59.2	25.3	8.8	22	> 100	> 100	Activity [10]: 11.31%; Activity [11]: 30.69%; Activity [12]: 0.2%; Activity [13]: Active; Activity [14]: 72.25%; Activity [15]: 16.1%; Activity [16]: 0.69%; Activity [17]: 22.5%; Activity [18]: 0.34%; Activity [19]: 25.51%; Activity [20]: 51.78%; Activity [21]: 9.73%; Activity [22]: 8.65%; Activity [23]: 0.52%; Activity [24]: 86.58%; Activity [25]: 7.64%; Activity [26]: 65.4%; Activity [27]: Active
c1ccc(Sc2c(-c3ccccc3)nc3sc4ccccc4n23)cc1	34.2	63.2	28.1	62.6	54.9	22.3	45	> 100	> 100	
COc1cccc2c1C(=O)c1c(O)c3c(c(O)c1C2=O)C[C@@](O)(C(=O)CO)C[C@@H]3O[C@H]1C[C@H](N)[C@H](O)[C@H](C)O1 [DOXORUBICIN]	2.1	1.8		1.7	1.6	1.8	1.4			
COc1cccc(OC)c1-c1nc2ccccn2c1Sc1ccccc1	32.2	> 100	21.5	> 100	75.6	19.5	22.4	> 100	> 100	
c1ccc(Sc2c(-c3cccc4ccccc34)nc3ccccn23)cc1	33.1	> 100	17.9	> 100	69.3	9.9	60.6	> 100	> 100	Activity [10]: 11.9%; Activity [11]: 25.53%; Activity [12]: 0.34%; Activity [13]: Active; Activity [14]: 77.51%; Activity [15]: 10.32%; Activity [16]: 0.36%; Activity [17]: 18.94%; Activity [18]: 0.26%; Activity [19]: 25.45%; Activity [20]: 55.27%; Activity [21]: 7.29%; Activity [22]: 8.52%; Activity [23]: 2.54%; Activity [24]: 86.33%; Activity [25]: 3.7%; Activity [26]: 70.35%; Activity [27]: Active

More lines, main results first:

IC50 [2] [µM]	IC50 [3] [µM]	IC50 [4] [µM]	IC50 [5] [µM]	IC50 [6] [µM]	IC50 [7] [µM]	IC50 [8] [µM]	SMILES	IC50 [1] [µM]	IC50 [9] [µM]	other results
62	73.1	22	30.2	24.5	13.9	30.7	Clc1ccc(-c2nc3ccccn3c2Sc2ccccc2)cc1	> 100	> 100	
52.1	> 100	56.2	61.7	> 100	50.2	84.5	CCc1ccc(-c2nc3ccccn3c2Sc2ccccc2)cc1	> 100	> 100	
79.9	81.5	71.5	> 100	94.5	63.1	95.1	Cc1ccc2nc(-c3ccc(Cl)cc3)c(Sc3ccccc3)n2c1	> 100	> 100	
74.1	77.3	69.8	> 100	73.1	59.3	92.3	Clc1ccc(Sc2c(-c3cccs3)nc3ccccn23)cc1	86.1	93	
19.9	85.3	16.9	> 100	69.2	17.1	24.1	c1ccc(Sc2c(-c3cccs3)nc3ccccn23)cc1	> 100	> 100	
